Measurements from patent US8017612B2, “Piperazine compound and use thereof as a HCV polymerase inhibitor” (priority 2006, dated 2011).

Columns and labels:
[1] = biological target: T1, HCV polymerase (NS5B) type 1a (Hepatitis C virus genotype 1a, UniProt P26664); assay: Assay of enzyme (HCV polymerase) inhibitory activity, type 1a enzyme; assay type: biochemical, HCV type 1a (cloned from the blood of patients)
T1 construct: made in house; host or cells: Escherichia coli (by the 'similar method' of the 1b enzyme)
Outline: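 His-tagged NS5B, C-terminal 47 residues deleted, type 1a at 1.5 μg/ml, with 5 μg/ml HCV 3′UTR substrate RNA, 50 μM ATP/GTP/CTP, 2 μM UTP plus [3H]UTP, pH 7.5 Tris, 5 mM MgCl2; 60 min at 25° C. TCA-precipitated RNA counted by scintillation; IC50 from radioactivity with vs. without compound.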

[2] = biological target: T2, HCV polymerase (NS5B) type 1b (Hepatitis C virus genotype 1b, UniProt P26663); assay: Assay of enzyme (HCV polymerase) inhibitory activity, type 1b enzyme; assay type: biochemical, HCV BK strain (type 1b)
T2 construct: a region encoding NS5B (J Virol 1991 March, 65(3), 1105-13, 544 amino acids after deletion of 47 amino acids on the C-terminal); 6xHis (C); made in house; host or cells: Escherichia coli
Outline: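 His-tagged, C-terminally truncated NS5B (BK strain, 1b; 0.5 μg/ml) incubated with compound 60 min at 25 °C on 3′UTR-derived substrate RNA (5 μg/ml), 50 μM ATP/GTP/CTP, 2 μM UTP plus [3H]UTP, pH 7.5. Acid-precipitated RNA counted; IC50 from radioactivity with and without compound.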

[3] = HCV polymerase inhibitory activity IC50, 1a, type 1a enzyme
[4] = HCV polymerase inhibitory activity IC50, 1b, type 1b enzyme
[5] = HCV polymerase inhibitory activity (IC50), 1a, type 1a enzyme 1.5 μg/ml, 25° C., 60 min
[6] = HCV polymerase inhibitory activity (IC50), 1b, type 1b enzyme 0.5 μg/ml, 25° C., 60 min

SMILES	IC50 [1, 3] [nM]	IC50 [2, 4] [nM]	IC50 [1, 5] [nM]	IC50 [2, 6] [nM]
COc1ccc(CCNC(=O)[C@H]2CN(C(C)=O)CCN2S(=O)(=O)c2ccc(OC(F)(F)F)cc2)cc1 [Example 673, (R)-4-acetyl-1-(4-trifluoromethoxy-benzenesulfonyl)-piperazine-2-carboxylic acid [2-(4-methoxy-phenyl)-ethyl]-amide]	> 1000	> 1000	–	–
CCCc1ccc(CNC(=O)[C@H]2CN(c3nc(C(=O)O)c(COC)s3)CCN2S(=O)(=O)c2ccc(OC(F)(F)F)cc2)cc1 [Example 536, 5-methoxymethyl-2-[(R)-3-(4-propyl-benzylcarbamoyl)-4-(4-trifluoromethoxy-benzenesulfonyl)-piperazin-1-yl]-thiazole-4-carboxylic acid]	–	–	100 to 1000	< 100
Cc1cnc(CNC(=O)[C@H]2CN(c3cnc4cncnc4n3)CCN2S(=O)(=O)c2ccc(OC(F)(F)F)cc2)cn1 [Example 721, (R)-4-pteridin-7-yl-1-(4-trifluoromethoxy-benzenesulfonyl)-piperazine-2-carboxylic acid (5-methyl-pyrazin-2-ylmethyl)-amide]	> 1000	> 1000	–	–
CCc1ccc(CNC(=O)C2CN(C(C)=O)CCN2S(=O)(=O)c2ccc(C(C)C)cc2)cc1 (stereo not drawn) [Example 144, 4-acetyl-1-(4-isopropyl-benzenesulfonyl)-piperazine-2-carboxylic acid 4-ethyl-benzylamide]	–	–	100 to 1000	100 to 1000
COc1cccc(CNC(=O)C2CN(C(C)=O)CCN2S(=O)(=O)c2ccc(C(C)C)cc2)c1 (stereo not drawn) [Example 51, 4-acetyl-1-(4-isopropyl-benzenesulfonyl)-piperazine-2-carboxylic acid 3-methoxy-benzylamide]	–	–	> 1000	> 1000
CCCc1ccc(CNC(=O)[C@H]2CN(c3nc(C)c(CNC)s3)CCN2S(=O)(=O)c2ccc(OC(F)(F)F)cc2)cc1 [Example 506, (R)-4-(4-methyl-5-methylaminomethyl-thiazol-2-yl)-1-(4-trifluoromethoxy-benzenesulfonyl)-piperazine-2-carboxylic acid 4-propyl-benzylamide]	–	–	< 100	< 100
CCC(F)(F)c1ccc(CNC(=O)[C@H]2CN(c3cnc(CN(C)C)cn3)CCN2S(=O)(=O)c2ccc(OC(F)(F)F)cc2)cc1 [Example 595, (R)-5′-dimethylaminomethyl-4-(4-trifluoromethoxy-benzenesulfonyl)-3,4,5,6-tetrahydro-2H-[1,2′]bipyrazinyl-3-carboxylic acid 4-(1,1-difluoro-propyl)-benzylamide]	–	–	< 100	< 100
CC(=O)N1CCN(S(=O)(=O)c2ccc(C(C)C)cc2)[C@@H](C(=O)NCc2ccc(C(C)C)cc2F)C1 [Example 292, (R)-4-acetyl-1-(4-isopropyl-benzenesulfonyl)-piperazine-2-carboxylic acid 2-fluoro-4-isopropyl-benzylamide]	–	–	100 to 1000	< 100
CC(=O)N1CCN(S(=O)(=O)c2ccc(-c3ccc(Cl)cc3)cc2)C(C(=O)NCc2ccc(C(F)(F)F)cc2)C1 (stereo not drawn) [Example 26, 4-acetyl-1-(4′-chloro-biphenyl-4-sulfonyl)-piperazine-2-carboxylic acid 4-trifluoromethyl-benzylamide]	–	–	> 1000	> 1000
CCCc1ccc(CNC(=O)[C@H]2CN(c3nc4cn[nH]c(=O)c4s3)CCN2S(=O)(=O)c2ccc(CC)cc2)cc1 [Example 812, (R)-1-(4-ethyl-benzenesulfonyl)-4-(7-oxo-6,7-dihydro-thiazolo[4,5-d]pyridazin-2-yl)-piperazine-2-carboxylic acid 4-propyl-benzylamide]	< 100	< 100	–	–
CC(C)c1ccc(CNC(=O)[C@H]2CN(CC(N)=O)CCN2S(=O)(=O)c2ccc(C(F)(F)F)cc2)cc1 [Example 146, (R)-4-carbamoylmethyl-1-(4-trifluoromethyl-benzenesulfonyl)-piperazine-2-carboxylic acid 4-isopropyl-benzylamide]	–	–	> 1000	100 to 1000
CCC(F)(F)c1ccc(CNC(=O)[C@H]2CN(C(=O)C(C)C)CCN2S(=O)(=O)c2ccc(OC(F)(F)F)cc2)cc1 [Example 609, (R)-4-isobutyryl-1-(4-trifluoromethoxy-benzenesulfonyl)-piperazine-2-carboxylic acid 4-(1,1-difluoro-propyl)-benzylamide]	–	–	> 1000	100 to 1000
CCCc1ccc(CNC(=O)[C@H]2CN(C(=O)Nc3ccccc3O)CCN2S(=O)(=O)c2ccc(OC(F)(F)F)cc2)cc1 [Example 834, (R)-4-(4-trifluoromethoxy-benzenesulfonyl)-piperazine-1,3-dicarboxylic acid 1-[(2-hydroxy-phenyl)-amide] 3-(4-propyl-benzylamide)]	100 to 1000	100 to 1000	–	–
CC(C)c1ccc(CNC(=O)[C@H]2CN(C(=O)Nc3ccc(Cl)cc3)CCN2S(=O)(=O)c2ccc(C(F)(F)F)cc2)cc1 [Example 271, (R)-4-(4-trifluoromethyl-benzenesulfonyl)-piperazine-1,3-dicarboxylic acid 1-[(4-chloro-phenyl)-amide] 3-(4-isopropyl-benzylamide)]	–	–	> 1000	> 1000
CCC(CC)c1ccc(S(=O)(=O)N2CCN(C(C)=O)CC2C(=O)NCc2ccc(C(F)(F)F)cc2)cc1 (stereo not drawn) [Example 162, 4-acetyl-1-[4-(1-ethyl-propyl)-benzenesulfonyl]-piperazine-2-carboxylic acid 4-trifluoromethyl-benzylamide]	–	–	> 1000	> 1000
CC(=O)N1CCN(S(=O)(=O)c2ccc(C(C)C)cc2)C(C(=O)NCc2ccc(-c3ccccc3)cc2)C1 (stereo not drawn) [Example 36, 4-acetyl-1-(4-isopropyl-benzenesulfonyl)-piperazine-2-carboxylic acid (biphenyl-4-ylmethyl)-amide]	–	–	100 to 1000	> 1000
CSc1ccc(CNC(=O)[C@H]2CN(c3cnc4cncnc4n3)CCN2S(=O)(=O)c2ccc(OC(F)(F)F)cc2)cc1 [Example 661, (R)-4-pteridin-7-yl-1-(4-trifluoromethoxy-benzenesulfonyl)-piperazine-2-carboxylic acid 4-methylsulfanyl-benzylamide]	< 100	< 100	–	–
O=C(NCc1ccc(OC(F)(F)F)cc1)[C@H]1CN(c2nc3nc(Cl)[nH]c(=O)c3s2)CCN1S(=O)(=O)c1ccc(OC(F)(F)F)cc1 [Example 963, (R)-4-(5-chloro-7-oxo-6,7-dihydro-thiazolo[4,5-d]pyrimidin-2-yl)-1-(4-trifluoromethoxy-benzenesulfonyl)-piperazine-2-carboxylic acid 4-trifluoromethoxy-benzylamide]	< 100	< 100	–	–
O=C(NCc1ccc(OC(F)(F)F)cc1)[C@H]1CN(c2nc3nnnc(NCCO)c3s2)CCN1S(=O)(=O)c1ccc(OC(F)(F)F)cc1 [Example 1002, (R)-4-[4-(2-hydroxy-ethylamino)-thiazolo[4,5-d][1,2,3]triazin-6-yl]-1-(4-trifluoromethoxy-benzenesulfonyl)-piperazine-2-carboxylic acid 4-trifluoromethoxy-benzylamide]	< 100	< 100	–	–
Cc1cc(C(C)C)ccc1CNC(=O)[C@H]1CN(c2nc(C)c(C(=O)O)s2)CCN1S(=O)(=O)c1ccc(C(F)(F)F)cc1 [Example 335, 2-[(R)-3-(4-isopropyl-2-methyl-benzylcarbamoyl)-4-(4-trifluoromethyl-benzenesulfonyl)-piperazin-1-yl]-4-methyl-thiazole-5-carboxylic acid]	–	–	< 100	< 100
CCC(F)(F)c1ccc(CNC(=O)[C@H]2CN(C(=O)Cc3cn(C)cn3)CCN2S(=O)(=O)c2ccc(OC(F)(F)F)cc2)cc1 [Example 498, (R)-4-[2-(1-methyl-1H-imidazol-4-yl)-acetyl]-1-(4-trifluoromethoxy-benzenesulfonyl)-piperazine-2-carboxylic acid 4-(1,1-difluoro-propyl)-benzylamide]	–	–	100 to 1000	100 to 1000
CN(C)c1ccc(CNC(=O)[C@H]2CN(c3cnc4cncnc4n3)CCN2S(=O)(=O)c2ccc(OC(F)(F)F)cc2)cn1 [Example 630, (R)-4-pteridin-7-yl-1-(4-trifluoromethoxy-benzenesulfonyl)-piperazine-2-carboxylic acid (6-dimethylamino-pyridin-3-ylmethyl)-amide]	–	–	< 100	< 100
CCC(F)(F)c1ccc(CNC(=O)[C@H]2CN(c3cnc4cncnc4n3)CCN2S(=O)(=O)c2ccc3c(c2)CCC(CC(=O)O)CC3)cc1 (stereo partly drawn) [Example 729, (2-{(R)-2-[4-(1,1-difluoro-propyl)-benzylcarbamoyl]-4-pteridin-7-yl-piperazine-1-sulfonyl}-6,7,8,9-tetrahydro-5H-benzocyclohepten-7-yl)-acetic acid]	< 100	< 100	–	–
CCC(F)(F)c1ccc(CNC(=O)[C@H]2CN(c3cnc(C(N)=O)cn3)CCN2S(=O)(=O)c2ccc(OC(F)(F)F)cc2)cc1 [Example 586, (R)-4-(4-trifluoromethoxy-benzenesulfonyl)-3,4,5,6-tetrahydro-2H-[1,2′]bipyrazinyl-3,5′-dicarboxylic acid 5′-amide 3-[4-(1,1-difluoro-propyl)-benzylamide]]	–	–	< 100	< 100
